Data on six molecules can be found in paper PMC4821601, “The Interactions of P-Glycoprotein with Antimalarial Drugs, Including Substrate Affinity, Inhibition and Regulation” (PLoS ONE, 2016).

Where two headings read alike, the source gives them in different places. Marks after values point to notes of the source that are not given here.

In data set [1] the test system is Caco-2 intestinal epithelial cells. Also noted: method as in PMID 8773952. The conditions noted are these: earlier report ref 53; cited from earlier work.
For data set [2], the system named is Caco-2 cell monolayers. Nature of the data set: Bidirectional transport (Papp, efflux ratio) of antimalarials through Caco-2 cell monolayers. It is filed as in vitro ADME, human. Here is the method: (§1) The initial experiments were conducted in mid-40s passage cells and repeated in early 80s passage Caco-2 cells. […] In order to maintain equivalent transport medium (HBSS/HBSS with inhibitor) level both outside and inside the chambers, 300 μL was used as medium in the apical chambers and 600 μL in the basolateral chambers. […] Drugs were co-incubated with MRCP, BCRP and ATP hydrolysis blockers to determine the involvement of other efflux mechanisms. Prior to the experiment, the transport medium, HBSS or HBSS with P-gp inhibitors were pre-incubated with the cells for 30 minutes. Following incubation, inserts were placed in new well plates and donor chamber is replaced with drug or drug with inhibitor and the receiver chamber with blank HBSS or HBSS with inhibitor. Transport medium was collected from the receiver chamber after stirring at time intervals of 30, 60, 90 and 120 minutes and was replaced with the same volume of fresh HBSS, or HBSS with inhibitor, when P-gp inhibitors were used in the study. At the end of the experiment 100 μL of medium was removed from the donor chamber in addition to medium collected from the receiver chamber during the study. The cells were then washed thoroughly in cold (4°C) PBS and cell membranes attached to the inserts were sonicated for 10 minutes in a sonicating water bath and centrifuged at 10,000 g for 10 minutes. Supernatant was frozen at -80°C until assayed. […] CL.vol=[…].vol = clearance volume (mL), n = time (min), Aa = amount in acceptor compartment at time n (pmols), Cd0 = concentration in donor compartment at time zero (nM), Vd = volume of the donor compartment (mL), Ca = concentration in acceptor compartment at the previous time point (nM), Vs = sample volume of previous time point (mL), Ac = amount of compound associated with the cells (pmol), Nfin = final time point (min). […] The cleared volume was plotted against time and the slope of the regression line was divided by the surface area to obtain the Papp values. […] The method from Davis and colleagues was adopted with slight modifications. Separations were performed using an Apollo C18 (5 μm, 4.6x150mm) column attached to a matched guard column (5 μm, 4.6x5.5 mm). […] The injection volume was 40 μL and column oven was maintained at 35°C. The analytes were detected at 222 nm and the retention time was 5.6 minutes. Assay developed by Pussard and co-workers were used and slight modifications were done to adjust laboratory conditions. Separation was done using a Prevail C18 (3 μm, 4.6x150mm) column attached to a Direct-connect^TM universal column prefilter. The mobile phase consisted of 20 mM (w/v) KH2PO4 in deionized water at pH 3.0 and acetonitrile (82:18) v/v. […] The injection volume was 40 μL and column oven was maintained at 30°C. The analytes were detected at 343 nm with a retention time of 2.4 minutes. […] Separations were performed using an Apollo C18 (5 μm, 4.6x150mm) column attached to matched guard column (5 μm, 4.6x5.5mm). […] The injection volume was 40 μL and column oven was maintained at 30°C. The analytes were detected at 660 nm with a retention time of 3.8 minutes. A 40 μL sample was spiked with 5 μL 0.5 mM artemisinin internal standard. […] The pipettor was adjusted to the maximum volume (100 μL). […] Pre-treated samples were loaded into the tips by gently aspirating and discarding into the same vial. The process was repeated 10 times in order to increase binding efficiency of drugs to the OMIX 96 C4 matrix. […] The LC-MS method described by […] and co-workers were modified to suit the LC-MS-MS conditions. […] Wexford, Ireland) at 40°C. […] Quantitation was performed in multiple reactions monitoring, MRM mode, using DUIS (ESI^+ and APCI^+) ion sources. […] The optimized mass spectra were acquired with an interface voltage of 4.5 kV, a detector voltage of 1.0 kV, a heat block temperature of 500°C and a desolvation temperature of 160°C.
(Passage across Caco-2 layers is used to estimate intestinal permeability.)

Assay in data set [3]: as above
It is filed as in vitro ADME, human. The note with it: human; for Papp at 120 min: Caco-2, Caco-2 monolayers. Here is the method: as §1

Data set [4] concerns P-gp. The conditions noted are these: 20 μM, 96 hours, Caco-2, western blot vs control. How it is done: Caco-2 cells were seeded in 6 well plates at 10,000 cells/cm^2 for 21 days. Drugs and drug combinations at 20 μM prepared in cell growth medium were added on to the mature cells and exposed for 96 hours. After drug exposure, cells were washed three times using PBS and cell lysate was prepared in lysis buffer. The protein content was quantified using the 96 well micro-Lowry protein assay and regulation of P-gp was determined using western blotting.
The membrane was blocked using 2% casein in TBS and washed with TBST. The primary antibody; Mdr (G-1) mouse monoclonal IgG2b 200 and mouse anti-β actin were used as the antibody for β-actin, the reference protein. The antibody; HRP linked goat anti mouse IgG was used as the secondary antibody. The washed membrane was incubated in a BioRad clarity chemiluminescent substrate and enhancer was read and semi quantified using the BIORAD Chemidoc MPT imager with Image LabTM software.
For orientation: Immunoblotting shows a protein as a band on a membrane.

Data set [5] has as its target T1, P-glycoprotein (P-gp) (Homo sapiens, UniProt P08183).
T1 construct: In-vitro Caco-2 cell monolayers were used here as a model for potential drug absorption related problems and P-gp mediated transport of drugs; endogenous in cells; host or cells: Caco-2 (human colon carcinoma, ATCC)
Nature of the data set: Bidirectional transport of rhodamine123 through Caco-2 monolayers co-incubated with antimalarials (P-gp inhibitory properties). The class given is in vitro ADME. How it is done:
The Caco-2 cells were seeded on 0.6 cm^2 […] Millipore PCF™ filter inserts at the cell density of 65,000 cells/cm^2 as done previously in the lab. Briefly, the cells were grown for 21–24 days to allow full maturation and formation of tight monolayers. The initial experiments were conducted in mid-40s passage cells and repeated in early 80s passage Caco-2 cells. The Trans epithelial electrical resistance (TEER) was measured immediately before and after the experiment using an epithelial voltage/ohm meter and an ENDOHM 12 chamber (World precision instruments, Sarasota, FL). TEER values were measured both before and after the study with readings above 300 Ω.cm^2 considered as acceptable for tight junctions. […] In order to maintain equivalent transport medium (HBSS/HBSS with inhibitor) level both outside and inside the chambers, 300 μL was used as medium in the apical chambers and 600 μL in the basolateral chambers. […] Drugs were co-incubated with MRCP, BCRP and ATP hydrolysis blockers to determine the involvement of other efflux mechanisms. Prior to the experiment, the transport medium, HBSS or HBSS with P-gp inhibitors were pre-incubated with the cells for 30 minutes. Following incubation, inserts were placed in new well plates and donor chamber is replaced with drug or drug with inhibitor and the receiver chamber with blank HBSS or HBSS with inhibitor. Transport medium was collected from the receiver chamber after stirring at time intervals of 30, 60, 90 and 120 minutes and was replaced with the same volume of fresh HBSS, or HBSS with inhibitor, when P-gp inhibitors were used in the study. At the end of the experiment 100 μL of medium was removed from the donor chamber in addition to medium collected from the receiver chamber during the study. The cells were then washed thoroughly in cold (4°C) PBS and cell membranes attached to the inserts were sonicated for 10 minutes in a sonicating water bath and centrifuged at 10,000 g for 10 minutes. Supernatant was frozen at -80°C until assayed. The Papp values of three well plates were determined using methods modified from Artursson’s group as described by Crowe and Lemaire.
CL.vol=Aa/{[Cd0×Vd−[Aa+(Ca×Vs)]−(Ac)×n/nfin]/Vd}
CL.vol = clearance volume (mL), n = time (min), Aa = amount in acceptor compartment at time n (pmols), Cd0 = concentration in donor compartment at time zero (nM), Vd = volume of the donor compartment (mL), Ca = concentration in acceptor compartment at the previous time point (nM), Vs = sample volume of previous time point (mL), Ac = amount of compound associated with the cells (pmol), Nfin = final time point (min). Papp = Apparent permeability (cm/sec) Rate of clearance (mL/min)=CL.vol / n Papp (cm/sec)=Rate of clearance / Surface area (cm^2)
The cleared volume was plotted against time and the slope of the regression line was divided by the surface area to obtain the Papp values. […] Mean Papp for Bas-Ap direction was divided by the Ap-Bas direction to obtain the efflux ratio and values above two were considered as drugs having true efflux transport.

For data set [6] the following is noted: cited from earlier work.
The test system of data set [7] is P-gp. The note with it: cited from earlier work.
[8] abbreviates: summary in abstract, methylene blue depending on the direction of transport, read-out: permeability.

What is called efflux ratio is the permeability from basolateral to apical divided by that in the opposite direction, in the common usage.

T1 sequence (P08183 whole entry): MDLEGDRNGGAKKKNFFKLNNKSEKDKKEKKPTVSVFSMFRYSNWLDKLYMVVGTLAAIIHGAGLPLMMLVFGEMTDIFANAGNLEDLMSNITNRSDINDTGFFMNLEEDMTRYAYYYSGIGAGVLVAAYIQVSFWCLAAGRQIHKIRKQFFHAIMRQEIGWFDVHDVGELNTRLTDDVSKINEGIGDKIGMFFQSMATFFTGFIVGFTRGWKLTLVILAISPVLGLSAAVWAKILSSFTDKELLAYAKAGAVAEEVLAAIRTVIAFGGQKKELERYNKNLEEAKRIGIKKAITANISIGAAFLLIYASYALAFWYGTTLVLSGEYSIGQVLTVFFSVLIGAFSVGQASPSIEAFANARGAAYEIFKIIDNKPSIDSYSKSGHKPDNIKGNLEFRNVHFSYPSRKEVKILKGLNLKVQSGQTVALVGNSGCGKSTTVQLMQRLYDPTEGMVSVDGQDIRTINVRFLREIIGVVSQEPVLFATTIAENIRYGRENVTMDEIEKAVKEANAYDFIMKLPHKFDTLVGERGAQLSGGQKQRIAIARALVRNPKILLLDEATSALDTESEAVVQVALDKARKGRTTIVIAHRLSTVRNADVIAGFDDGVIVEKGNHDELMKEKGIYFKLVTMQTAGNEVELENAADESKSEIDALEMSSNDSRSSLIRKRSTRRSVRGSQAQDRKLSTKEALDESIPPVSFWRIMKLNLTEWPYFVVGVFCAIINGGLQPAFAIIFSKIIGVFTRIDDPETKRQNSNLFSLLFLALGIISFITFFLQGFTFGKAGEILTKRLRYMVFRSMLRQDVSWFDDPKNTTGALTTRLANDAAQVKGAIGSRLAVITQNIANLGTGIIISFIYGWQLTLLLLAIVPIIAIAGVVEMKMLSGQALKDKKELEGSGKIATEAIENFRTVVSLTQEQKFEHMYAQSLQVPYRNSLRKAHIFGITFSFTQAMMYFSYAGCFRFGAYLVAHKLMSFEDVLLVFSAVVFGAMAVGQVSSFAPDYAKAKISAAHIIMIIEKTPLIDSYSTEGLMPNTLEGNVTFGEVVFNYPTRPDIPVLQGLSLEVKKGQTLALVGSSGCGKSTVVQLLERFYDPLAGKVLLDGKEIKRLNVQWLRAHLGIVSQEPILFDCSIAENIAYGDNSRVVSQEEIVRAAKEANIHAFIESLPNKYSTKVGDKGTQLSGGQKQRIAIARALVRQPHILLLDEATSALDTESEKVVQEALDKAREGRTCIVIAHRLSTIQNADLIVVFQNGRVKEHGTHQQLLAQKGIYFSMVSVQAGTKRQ

As to `C[C@H]1[C@H](OC(=O)CCC(=O)[O-])O[C@@H]2O[C@@]3(C)CC[C@H]4[C@H](C)CC[C@@H]1[C@@]24OO3.[Na+]` [sodium artesunate], in data set [1], the Papp was 4 ×10⁻⁶ cm/s.
Turning to `C[C@H]1[C@H](OC(=O)CCC(=O)O)O[C@@H]2O[C@@]3(C)CC[C@H]4[C@H](C)CC[C@@H]1[C@@]24OO3` [ART, artesunate], in data set [2] (Conc (μM) + inhibitor (μM): 50), the Net flow direction entry was “Efflux (0.002) ^*”. For the same molecule, the Efflux ratio in data set [2] (Conc (μM) + inhibitor (μM): 50, Bas-Ap divided by Ap-Bas) turned out to be 1.2. Also, the Papp at 120 min in data set [3] (read-out: permeability across the gastrointestinal epithelium (class)) is 1 to 25 ×10⁻⁶ cm/s; in data set [3] (setting [8]), approximately 10 ×10⁻⁶ cm/s. In addition, the efflux ratio at 120 min, 50 µM in data set [3] (Caco-2, Conc (μM) + inhibitor (μM): 50, Bas-Ap divided by Ap-Bas) is 1.5. In addition, the Papp at 120 min, 50 µM in data set [3] (Caco-2, Conc (μM) + inhibitor (μM): 50, first-named drug measured, read-out: Papp Ap-Bas) is 10.2 ± 0.3 ×10⁻⁶ cm/s. The Papp B→A at 120 min, 50 µM in data set [3] (Caco-2, Conc (μM) + inhibitor (μM): 50, first-named drug measured, read-out: Papp Bas-Ap) turned out to be 12.3 ± 0.1 ×10⁻⁶ cm/s. In data set [4], the “regulation of P-gp expression” value was “slight up regulation of P-gp”. Further, the P-gp inhibitory properties result in data set [5] (at 100 μM) and in data set [5] (at test concentrations) was “did not exhibit P-gp inhibitory properties” each time.
As to `CN(C)c1ccc2nc3ccc(=[N+](C)C)cc-3sc2c1` [MB, methylene blue], the oral bioavailability in data set [6] (human volunteers, 100 mg ref 51) is on record as 10%.
As to `COC(=O)c1ccccc1-c1c2ccc(=N)cc-2oc2cc(N)ccc12` [Rh123, rhodamine123], the “Efflux ratio of rh123” value in data set [5] (5 μM rh123, 100 μM antimalarial drugs section) turned out to be 4.7. Also, the efflux ratio at 120 min, 5 µM in data set [5] (human, Caco-2, probe rhodamine 123, 5 μM rh123, 100 μM antimalarial drugs section) was approximately 5; in data set [5] (human, Caco-2, probe rhodamine 123, 5 μM rh123, 300 μM antimalarial drugs section) it was 5.7. In data set [5] (human, Caco-2, probe rhodamine 123, 5 μM rh123, 300 μM antimalarial drugs section, read-out: Papp of rh123 Ap-Bas), the Papp at 120 min, 5 µM was determined as 0.5 ± 0.1 ×10⁻⁶ cm/s.
With `C/C=C/C[C@@H](C)C(=O)[C@H]1C(=O)N[C@@H](C(C)C)C(=O)N(C)CC(=O)N(C)[C@@H](CC(C)C)C(=O)N[C@@H](C(C)C)C(=O)N(C)[C@@H](CC(C)C)C(=O)N[C@@H](C)C(=O)N[C@H](C)C(=O)N(C)[C@@H](CC(C)C)C(=O)N(C)[C@@H](CC(C)C)C(=O)N(C)[C@@H](C(C)C)C(=O)N1C` [PSC-833, PSC 833], the P-gp transport inhibition result in data set [7] (at 4 μM ref 19) is “completely eradicate P-gp mediated transport”.
Regarding `CCN(CC)Cc1cc(Nc2ccnc3cc(Cl)ccc23)ccc1O` [AQ, amodiaquine], the Net flow direction entry in data set [2] (Conc (μM) + inhibitor (μM): 10) is reported as “Efflux (0.02) ^*”; in data set [2] (Conc (μM) + inhibitor (μM): 100) it was “Diffusion (0.74)”. Besides, the Papp at 120 min in data set [3] (drug alone, read-out: Ap-Bas directional Papp, range over concentrations tested) is 16 to 22 ×10⁻⁶ cm/s; in data set [3] (setting [8]), approximately 20 ×10⁻⁶ cm/s. For the same molecule, the Papp at 120 min, 10 µM in data set [3] (Caco-2, Conc (μM) + inhibitor (μM): 10, first-named drug measured, read-out: Papp Ap-Bas) was 16 ± 1.1 ×10⁻⁶ cm/s. In addition, the Papp B→A at 120 min, 10 µM in data set [3] (Caco-2, Conc (μM) + inhibitor (μM): 10, first-named drug measured, read-out: Papp Bas-Ap) was 21.5 ± 0.9 ×10⁻⁶ cm/s. Further, in data set [3] (Caco-2, Conc (μM) + inhibitor (μM): 100, first-named drug measured, read-out: Papp Ap-Bas), the Papp at 120 min, 100 µM came to 22.5 ± 2 ×10⁻⁶ cm/s. Also, the Papp B→A at 120 min, 100 µM in data set [3] (Caco-2, Conc (μM) + inhibitor (μM): 100, first-named drug measured, read-out: Papp Bas-Ap) stood at 23.3 ± 0.8 ×10⁻⁶ cm/s. The P-gp inhibitory properties result in data set [7] (at 100 and 1000 μM ref 38) is reported as “P-gp inhibitory properties”. The tmax in data set [6] (oral administration in human ref 46) was less than 1 h.
